Patent US4001248A, “N-cycloalkylmethyl decahydroisoquinolines” (Eli Lilly and Company, priority 1974, dated 1977)
Where “and” joins values, the source holds several entries; their conditions need not be identical. Identical values can stand only once.

How the values were obtained:
rat tail jerk = rat tail jerk assay (increase in reaction time over control); assay type: in vivo
From the text: The compounds of this invention are also active in the rat tail jerk assay, another standard pharmacologic test for analgesic activity of the opiate-type. Such activity is manifested as an increase in the reaction time of the animal in removing (jerking) its tail from a nearby heat stimulus (a resistance wire) after drug administration compared to control time (no drug administered). Table 2 which follows gives the increased reaction times over control times produced by the compounds of this invention when administered subcutaneously. In Tables 2 and 3, column 1 gives the name of the compound; column 2, the dose; column 3, time of observation after administration of the drug; column 4, the increase in reaction time above control in seconds; and column 5, the level of significance of the results ("p" value). […] All drugs were administered as aqueous solutions. More than one value for a given dose level indicates multiple determinations. The results are not averaged.

[1] = system: writhing in mice induced by the intraperitoneal injection of acetic acid; assay: mouse-writhing test (inhibition of writhing induced by intraperitoneal acetic acid); assay type: in vivo; conditions: reading at 0.25 hours
From the text: In the Table, column 1 gives the name of the compund; column 2, the dosage in mg./kg. of mouse weight; column 3, the route of administration of the drug ("S.C." is subcutaneous and "or" is oral); and column 4, the percent inhibition found at the particular dose level. […] Median inhibiting doses (I.D.50) are also included in the Table.

morphine = assay: modified rat tail jerk assay, antagonism of morphine; assay type: in vivo, rats; conditions: subcutaneous
Protocol: The ability of the compounds of this invention to antagonize the action of morphine, an opiate, is shown by the following modification of the aforementioned rat tail jerk assay: The standard assay procedure is used with the exception that a 7 amps. current is used instead of a 6 amps. current in the hot wire to decrease the measurable agonist effects of the antagonist. The drugs under test are then administered to groups of rats at different dose levels at different times prior to test, with a 5 mg./kg. dose of morphine invariably being administered 10 minutes prior to test. Positive evidence of antagonism is a decreased reaction time over that to be expected from the morphine. […] Among the compounds of this invention, those in which R in Structure I is cyclopropylmethyl are the preferred antagonists, showing activity in the above test procedure. […] In a series of determinations, it was ascertained that the minimum subcutaneous dose necessary to reduce the analgesic effects of a 5 mg./kg. subcutaneous dose of morphine was in the range 2.5-5.0 mg./kg. and the minimum oral dose, 5-10 mg./kg.

[2] = system: morphine induced Straub tail; assay: blocking of morphine induced Straub tail in mice; assay type: in vivo; conditions: for blocking on the morphine-induced Straub tail: 15 and 30 minutes before assay
Protocol: In this assay, a 40 mg./kg. dose of morphine was administered to mice 15 minutes prior to assay, and the test drug at various intervals before assay. Trans-dl-1 -cyclopropylmethyl-3a-(m-hydroxyphenyl)-1,2,3,3a,4,5,6,7,7a,8-decahydroisoquinoline maleate gave a 100 percent block of the Straubed tail effected by a subcutaneous injection of 40 mg./kg. of morphine when the test drug was given at a dose of 50 mg./kg. subcutaneously 15 minutes prior to assay, and 80 percent when given 30 minutes prior to assay. The l(-) isomer gave 100 percent blocking on the morphine-induced Straub tail at 50 and 20 mg./kg. doses 15 and 30 minutes before assay.

toxicity (L.D.50) = assay type: in vivo, mice; conditions: compared with dl mixture; listed as l(-) isomer

For O=C(O)/C=C\C(=O)O.Oc1cccc([C@@]23CCCC[C@H]2CN(CC2CC2)CC3)c1 (stereo in doubt) [Trans-l(-)-1-cyclopropylmethyl-3a-(m-hydroxyphenyl)-1,2,3,3a] [Trans-l(-)-1-cyclopropylmethyl-3a-(m-hydroxyphenyl)-1,2,3,3a,4,5,6,7,7a,8-decahydroisoquinoline maleate], the “Increase in Reaction Time Over Control” value (rat tail jerk; oral, 5 mg./kg., 60 min) was “.20 s”, the “Increase in Reaction Time Over Control” value (rat tail jerk; oral, 10 mg./kg., 60 min) was “.65 s” and the “Increase in Reaction Time Over Control” value (rat tail jerk; oral, 25 mg./kg., 60 min) was 1.30 s. The “Increase in Reaction Time Over Control” value (rat tail jerk; oral, 50 mg./kg., 30 min) was 2.25 s, the “Increase in Reaction Time Over Control” value (rat tail jerk; oral, 50 mg./kg., 60 min) was 2.80 s and the “Increase in Reaction Time Over Control” value (rat tail jerk; oral, 50 mg./kg., 120 min) was “.80 s”. The “Increase in Reaction Time Over Control” value (rat tail jerk; oral, 100 mg./kg., 60 min) was 3.15 s, the “Increase in Reaction Time Over Control” value (rat tail jerk; oral, 200 mg./kg., 30 min, 20 sec. cut off) was 4.90 s and the “Increase in Reaction Time Over Control” value (rat tail jerk; oral, 200 mg./kg., 60 min) was 5.40 s. For the same molecule, the “Increase in Reaction Time Over Control” value (rat tail jerk; oral, 200 mg./kg., 120 min) was 2.65 s, the “Increase in Reaction Time Over Control” value (rat tail jerk; subcutaneous, 0.1 mg./kg., 30 min) was 85 s and the “Increase in Reaction Time Over Control” value (rat tail jerk; subcutaneous, 0.5 mg./kg., 30 min) was 1.30 s. For the same molecule, the “Increase in Reaction Time Over Control” value (rat tail jerk; subcutaneous, 1 mg./kg., 30 min) was 0 s, the “Increase in Reaction Time Over Control” value (rat tail jerk; subcutaneous, 5 mg./kg., 10 min) was 2.75 s and the “Increase in Reaction Time Over Control” value (rat tail jerk; subcutaneous, 5 mg./kg., 15 min) was 3.45 s. The “Increase in Reaction Time Over Control” value (rat tail jerk; subcutaneous, 5 mg./kg., 30 min) was 3.55 s and 2.95 s, the “Increase in Reaction Time Over Control” value (rat tail jerk; subcutaneous, 5 mg./kg., 30 min, 20 sec. cut off) was 6.65 s and 6.95 s and the “Increase in Reaction Time Over Control” value (rat tail jerk; subcutaneous, 5 mg./kg., 60 min) was 1.0 s. For the same molecule, the “Increase in Reaction Time Over Control” value (rat tail jerk; subcutaneous, 5 mg./kg., 120 min) was 0 s, the “Increase in Reaction Time Over Control” value (rat tail jerk; subcutaneous, 5 mg./kg., 180 min) was 0 s and the “Increase in Reaction Time Over Control” value (rat tail jerk; subcutaneous, 10 mg./kg., 10 min, 20 sec. cut off) was 7.30 s. The “Increase in Reaction Time Over Control” value (rat tail jerk; subcutaneous, 10 mg./kg., 15 min) was 5.80 s, the “Increase in Reaction Time Over Control” value (rat tail jerk; subcutaneous, 10 mg./kg., 15 min, 20 sec. cut off) was 6.70 s and the “Increase in Reaction Time Over Control” value (rat tail jerk; subcutaneous, 10 mg./kg., 60 min) was 3.0 s. For the same molecule, the “Increase in Reaction Time Over Control” value (rat tail jerk; subcutaneous, 10 mg./kg., 90 min) was 2.55 s, the “Increase in Reaction Time Over Control” value (rat tail jerk; subcutaneous, 10 mg./kg., 120 min) was 4.0 s and the “Increase in Reaction Time Over Control” value (rat tail jerk; subcutaneous, 10 mg./kg., 180 min) was 1.50 s. For the same molecule, the “Increase in Reaction Time Over Control” value (rat tail jerk; subcutaneous, 50 mg./kg., 15 min) was 7.35 s, the “% Inhibition” value ([1]; 2 mg./kg. S.C.) was 47% and the “% Inhibition” value ([1]; 5 mg./kg. S.C.) was 72%. The “dose showing antagonism of morphine” value (morphine) was 1 to 2 mg/kg, the “blocking on the morphine-induced Straub tail” value ([2]; 20 mg./kg.) was 100% and the “blocking on the morphine-induced Straub tail” value ([2]; 50 mg./kg.) was 100%. For the same molecule, the “blocking the morphine induced Straub tail” value ([2]; morphine 40 mg./kg.) was “manifests antagonistic effects in blocking the morphine induced Straub tail in mice” and the “toxicity relative to the dl mixture” value (toxicity (L.D.50)) was “less toxic than the dl mixture”.
